{"source": "patent US4782139A", "about": "“Selective chemical removal of a protein amino-terminal residue” (Eli Lilly and Company, priority 1986, dated 1988)", "key": {"[1]": {"experiment": "Protein stability under organic cleavage conditions, reverse phase HPLC", "conditions": "40° C.; for Protein Stability, relative percent remaining: against an untreated external control", "method": "Analysis of the products obtained via the foregoing cleavage methods upon a representative sampling of peptides and proteins was assessed by high performance anion exchange and reverse phase chromatography. Anion exchange chromatography was conducted on a Mono Q column in a 0.05M Tris, pH 8.0 buffer containing 30% acetonitrile. Elution was provided using a linear gradient of sodium chloride. Reverse phase analysis was performed on a Zorbax C8, 150Å pore size column using an acetonitrile gradient in 0.1M ammonium phosphate at 45° C., pH 7.0."}, "[2]": {"experiment": "Protein stability under organic cleavage conditions, anion exchange HPLC", "format": "physicochemical", "conditions": "40° C.", "method": "Anion exchange chromatography was conducted on a Mono Q column in a 0.05M Tris, pH 8.0 buffer containing 30% acetonitrile. Elution was provided using a linear gradient of sodium chloride. Reverse phase analysis was performed on a Zorbax C8, 150Å pore size column using an acetonitrile gradient in 0.1M ammonium phosphate at 45° C., pH 7.0."}, "[3]": {"experiment": "Organic cleavage conditions: diketopiperazine formation and disappearance of starting peptide, reverse phase chromatography", "format": "physicochemical", "text": "[…] A molecular sieves for one week. […] The rate of cleavage was monitored by appearance of methionyl-proline diketopiperazine formation and disappearance of starting peptide as measured in reverse phase chromatographic analysis. Chromatography was achieved using a 0.46×25 cm column of Ultrosphere C18 in 0.1% trifluoroacetic acid (TFA), using an acetonitrile gradient to effect elution. The reaction was stopped at each analysis time point by ten-fold dilution with 0.1% trifluoroacetic acid. The diketopiperazine peak was collected and its identity confirmed by amino acid and mass spectral analysis."}}, "note": "Residues, ends and D or L forms follow the SMILES beside them. No end group written: not given here."}
{"compound": "insulin Achain Ssulfonate [A(SO3^- )4, reference compound]", "values": [{"measurement": "Protein Stability, relative percent remaining", "setting": "[1]; 1 M HOAc/DMF, 2 h", "value": 100, "unit": "%"}, {"measurement": "Protein Stability, relative percent remaining", "setting": "[1]; 1 M HOAc/DMF, 24 h", "value": 58, "unit": "%"}, {"measurement": "Protein Stability, relative percent remaining", "setting": "[1]; 1 M HOAc/DMSO, 2 h", "value": 100, "unit": "%"}, {"measurement": "Protein Stability, relative percent remaining", "setting": "[1]; 1 M HOAc/DMSO, 24 h", "value": 100, "unit": "%"}, {"measurement": "Protein Stability, relative percent remaining", "setting": "[1]; 1 M HOAc/DMSO, 48 h", "value": 96, "unit": "%"}]}
{"compound": "Proinsulin", "values": [{"measurement": "Protein Stability, relative percent remaining", "setting": "[1]; 1 M HOAc/DMF, 2 h", "value": 86, "unit": "%"}, {"measurement": "Protein Stability, relative percent remaining", "setting": "[1]; 1 M HOAc/DMF, 24 h", "value": 43, "unit": "%"}, {"measurement": "Protein Stability, relative percent remaining", "setting": "[1]; 1 M HOAc/DMF, 48 h", "value": 30, "unit": "%"}, {"measurement": "Protein Stability, relative percent remaining", "setting": "[1]; 1 M HOAc/DMSO, 2 h", "value": 97, "unit": "%"}, {"measurement": "Protein Stability, relative percent remaining", "setting": "[1]; 1 M HOAc/DMSO, 24 h", "value": 70, "unit": "%"}, {"measurement": "Protein Stability, relative percent remaining", "setting": "[1]; 1 M HOAc/DMSO, 48 h", "value": 86, "unit": "%"}]}
{"compound": "methionyl human growth hormone", "values": [{"measurement": "Stability, determined by reverse phase HPLC", "setting": "[1]; 0.33 M HOAc/DMF, 2 h", "value": 78}, {"measurement": "Stability, determined by reverse phase HPLC", "setting": "[1]; 0.33 M HOAc/DMF, 4 h", "value": 65}, {"measurement": "Stability, determined by reverse phase HPLC", "setting": "[1]; 0.33 M HOAc/DMF, 24 h", "value": 45}, {"measurement": "Stability, determined by reverse phase HPLC", "setting": "[1]; 0.33 M HOAc/DMSO, 2 h", "value": 91}, {"measurement": "Stability, determined by reverse phase HPLC", "setting": "[1]; 0.33 M HOAc/DMSO, 4 h", "value": 77}, {"measurement": "Stability, determined by reverse phase HPLC", "setting": "[1]; 0.33 M HOAc/DMSO, 24 h", "value": 75}, {"measurement": "Stability, determined by reverse phase HPLC", "setting": "[1]; 0.33 M HOAc/NMP, 2 h", "value": 85}, {"measurement": "Stability, determined by reverse phase HPLC", "setting": "[1]; 0.33 M HOAc/NMP, 4 h", "value": 70}, {"measurement": "Stability, determined by reverse phase HPLC", "setting": "[1]; 0.33 M HOAc/NMP, 24 h", "value": 77}, {"measurement": "Stability, determined by anion exchange HPLC", "setting": "[2]; 0.33 M HOAc/DMF, 2 h", "value": 78}, {"measurement": "Stability, determined by anion exchange HPLC", "setting": "[2]; 0.33 M HOAc/DMF, 4 h", "value": 68}, {"measurement": "Stability, determined by anion exchange HPLC", "setting": "[2]; 0.33 M HOAc/DMF, 24 h", "value": 34}, {"measurement": "Stability, determined by anion exchange HPLC", "setting": "[2]; 0.33 M HOAc/DMSO, 2 h", "value": 100}, {"measurement": "Stability, determined by anion exchange HPLC", "setting": "[2]; 0.33 M HOAc/DMSO, 4 h", "value": 99}, {"measurement": "Stability, determined by anion exchange HPLC", "setting": "[2]; 0.33 M HOAc/DMSO, 24 h", "value": 86}, {"measurement": "Stability, determined by anion exchange HPLC", "setting": "[2]; 0.33 M HOAc/NMP, 2 h", "value": 90}, {"measurement": "Stability, determined by anion exchange HPLC", "setting": "[2]; 0.33 M HOAc/NMP, 4 h", "value": 89}, {"measurement": "Stability, determined by anion exchange HPLC", "setting": "[2]; 0.33 M HOAc/NMP, 24 h", "value": 75}]}
{"compound": "insulin Bchain Ssulfonate [B(SO3^- )2, reference compound]", "values": [{"measurement": "Protein Stability, relative percent remaining", "setting": "[1]; 1 M HOAc/DMF, 2 h", "value": 97, "unit": "%"}, {"measurement": "Protein Stability, relative percent remaining", "setting": "[1]; 1 M HOAc/DMF, 24 h", "value": 62, "unit": "%"}, {"measurement": "Protein Stability, relative percent remaining", "setting": "[1]; 1 M HOAc/DMSO, 2 h", "value": 94, "unit": "%"}, {"measurement": "Protein Stability, relative percent remaining", "setting": "[1]; 1 M HOAc/DMSO, 24 h", "value": 106, "unit": "%"}]}
{"compound": "CSCC[C@H](N)C(=O)N1CCC[C@H]1C(=O)NCC(=O)NCC(N)=O", "note": "[Met--Pro--Gly--Gly--NH2] (H-MPGG-NH2)", "values": [{"measurement": "quantity of starting material remaining", "setting": "[3]; 1 M HOAc/CH2 Cl2, 25° C., 0 h", "value": 100, "unit": "%"}, {"measurement": "quantity of starting material remaining", "setting": "[3]; 1 M HOAc/CH2 Cl2, 25° C., 2 h", "value": 104, "unit": "%"}, {"measurement": "quantity of starting material remaining", "setting": "[3]; 1 M HOAc/CH2 Cl2, 25° C., 4 h", "value": 96, "unit": "%"}, {"measurement": "quantity of starting material remaining", "setting": "[3]; 1 M HOAc/CH2 Cl2, 25° C., 6 h", "value": 99, "unit": "%"}, {"measurement": "quantity of starting material remaining", "setting": "[3]; 1 M HOAc/CH2 Cl2, 25° C., 24 h", "value": 80, "unit": "%"}, {"measurement": "quantity of starting material remaining", "setting": "[3]; 1 M HOAc/CH3 CN, 25° C., 0 h", "value": 100, "unit": "%"}, {"measurement": "quantity of starting material remaining", "setting": "[3]; 1 M HOAc/CH3 CN, 25° C., 2 h", "value": 114, "unit": "%"}, {"measurement": "quantity of starting material remaining", "setting": "[3]; 1 M HOAc/CH3 CN, 25° C., 4 h", "value": 105, "unit": "%"}, {"measurement": "quantity of starting material remaining", "setting": "[3]; 1 M HOAc/CH3 CN, 25° C., 6 h", "value": 99, "unit": "%"}, {"measurement": "quantity of starting material remaining", "setting": "[3]; 1 M HOAc/CH3 CN, 25° C., 24 h", "value": 66, "unit": "%"}, {"measurement": "quantity of starting material remaining", "setting": "[3]; 1 M HOAc/DMF, 25° C., 0 h", "value": 100, "unit": "%"}, {"measurement": "quantity of starting material remaining", "setting": "[3]; 1 M HOAc/DMF, 25° C., 2 h", "value": 88, "unit": "%"}, {"measurement": "quantity of starting material remaining", "setting": "[3]; 1 M HOAc/DMF, 25° C., 4 h", "value": 71, "unit": "%"}, {"measurement": "quantity of starting material remaining", "setting": "[3]; 1 M HOAc/DMF, 25° C., 6 h", "value": 57, "unit": "%"}, {"measurement": "quantity of starting material remaining", "setting": "[3]; 1 M HOAc/DMF, 25° C., 24 h", "value": 11, "unit": "%"}, {"measurement": "quantity of starting material remaining", "setting": "[3]; 1 M HOAc/DMSO, determined at 40° C., 0 h", "value": 100, "unit": "%"}, {"measurement": "quantity of starting material remaining", "setting": "[3]; 1 M HOAc/DMSO, determined at 40° C., 2 h", "value": 73, "unit": "%"}, {"measurement": "quantity of starting material remaining", "setting": "[3]; 1 M HOAc/DMSO, determined at 40° C., 4 h", "value": 56, "unit": "%"}, {"measurement": "quantity of starting material remaining", "setting": "[3]; 1 M HOAc/DMSO, determined at 40° C., 24 h", "value": 6, "unit": "%"}, {"measurement": "quantity of starting material remaining", "setting": "[3]; 1 M HOAc/MeOH, 25° C., 0 h", "value": 100, "unit": "%"}, {"measurement": "quantity of starting material remaining", "setting": "[3]; 1 M HOAc/MeOH, 25° C., 2 h", "value": 101, "unit": "%"}, {"measurement": "quantity of starting material remaining", "setting": "[3]; 1 M HOAc/MeOH, 25° C., 4 h", "value": 99, "unit": "%"}, {"measurement": "quantity of starting material remaining", "setting": "[3]; 1 M HOAc/MeOH, 25° C., 6 h", "value": 99, "unit": "%"}, {"measurement": "quantity of starting material remaining", "setting": "[3]; 1 M HOAc/MeOH, 25° C., 24 h", "value": 97, "unit": "%"}, {"measurement": "quantity of starting material remaining", "setting": "[3]; 1 M HOAc/nPrOH, 25° C., 2 h", "value": 100, "unit": "%"}, {"measurement": "quantity of starting material remaining", "setting": "[3]; 1 M HOAc/nPrOH, 25° C., 4 h", "value": 97, "unit": "%"}, {"measurement": "quantity of starting material remaining", "setting": "[3]; 1 M HOAc/nPrOH, 25° C., 6 h", "value": 94, "unit": "%"}, {"measurement": "quantity of starting material remaining", "setting": "[3]; 1 M HOAc/nPrOH, 25° C., 24 h", "value": 72, "unit": "%"}]}
{"compound": "APLEPEYPGDNATPEQMAQYAAELRRYINMLTRPRY-NH2 [bPP, bovine pancreatic polypeptide, reference compound]", "values": [{"measurement": "Protein Stability, relative percent remaining", "setting": "[1]; 1 M HOAc/DMF, 2 h", "value": 42, "unit": "%"}, {"measurement": "Protein Stability, relative percent remaining", "setting": "[1]; 1 M HOAc/DMF, 24 h", "value": 40, "unit": "%"}, {"measurement": "Protein Stability, relative percent remaining", "setting": "[1]; 1 M HOAc/DMF, 48 h", "value": 32, "unit": "%"}, {"measurement": "Protein Stability, relative percent remaining", "setting": "[1]; 1 M HOAc/DMSO, 2 h", "value": 52, "unit": "%"}, {"measurement": "Protein Stability, relative percent remaining", "setting": "[1]; 1 M HOAc/DMSO, 24 h", "value": 90, "unit": "%"}, {"measurement": "Protein Stability, relative percent remaining", "setting": "[1]; 1 M HOAc/DMSO, 48 h", "value": 86, "unit": "%"}]}
